Assay [1] has as its system hematological malignancies and solid tumors. Particulars: several hematological malignancies and solid tumors; cited from earlier work.
For another assay, the system named is lymphoid malignancies. Particulars: cited from earlier work.
In assay [2] the test system is T-ALL patient derived xenograft models. Particulars: in vivo; cited from earlier work.
For assay [3], the target named is T1, BCLXL (Homo sapiens, UniProt Q07817, V10N/V9A). Briefly: Fluorescence polarisation assay (PUMA-based probe displacement). Note: 20 nM protein, 10 nM fluorescent probe. The format is binding. (In general: Fluorescence polarisation rises when a labelled molecule tumbles more slowly, as on binding a larger partner.)
The target of assay [4] is T1, BCLXL. Description: AlphaLISA assay (BIM peptide displacement). The assay is classed as binding. The following applies: 20 pM protein, 1 nM peptide. Summed up:
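Competitive displacement of fluorescein-labelled BIM peptide (1 nM) from biotinylated GST-BCL-XL(2-209) (20 pM) in 10 mM HEPES, 150 mM NaCl, 0.05% Tween 20, pH 7.4, 4% DMSO; 11-point dilutions. Overnight at 23° C with acceptor beads, then donor beads 2 h; Alpha signal at 615 nm.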
A general note: In Alpha technology, singlet oxygen from a donor bead excites a nearby acceptor bead.

In the next assay the target is T2, Bcl-xL protein (Homo sapiens, UniProt Q07817, N197C).
T2 construct: (2-197)[N197C]; His-His (two His8 stretches joined by a Gly/Ala/Ser/Thr linker)
Description: Fluorescence quenching assay (PUMA peptide displacement). The format is binding. The following applies: 1 nM protein, 400 nM peptide, 2 hours at 23° C.; KI determined from IC50. Summed up:
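Compounds were tested as an 11-point series in pH 7.4 HEPES/NaCl/Tween buffer with 5% DMSO, 2 h at 23 °C. Cy5-tagged Bcl-xL(2-197, N197C) at 1 nM and quencher-tagged PUMA peptide at 400 nM were used. Competitive binders restore fluorescence (620/680 nm), and IC50 values were converted to KI.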

A further assay deals with H146 cells. Description: H146 cell viability, MTT assay. The assay is classed as cell-based. The following applies: Homo sapiens, NCI-H146, 48 h, 48 h exposure. Summed up:
(§1)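 Viability read by MTT reduction (OD 540 nm after overnight SDS/HCl lysis) after 48 h compound treatment of cells in RPMI 1640/10% FBS. Triplicates at nine concentrations, 3.16-fold apart; four-parameter curve fitting yields IC50.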

A further assay has as its system MOLT-4 cells. Briefly: MOLT-4 cell viability, MTT assay. Particulars: Homo sapiens, MOLT-4, 48 h, 48 h exposure. The format is cell-based. An outline of the steps:
as §1

Assay [5] relates to MOLT-4 T-cell Acute Lymphoblastic Leukemia (T-ALL) model. Description: MOLT-4 xenograft efficacy study (tumor growth inhibition). The assay is classed as in vivo, female NOD SCID mice. Particulars: for % TGI (day 17): 3.75 mg/kg, IV, Q3D6; for activity in vivo after intravenous administration: MOLT-4 xenograft. The method, then:
The in vivo therapeutic and pharmacodynamic effects of Bcl-xL-targeting small molecules were determined in MOLT-4 T-cell Acute Lymphoblastic Leukemia (T-ALL) model upon intravenous (IV) administration. The tested compounds were formulated in Hydroxypropyl-β-Cyclodextrin 20%/Hydrogen Chloride 25 mM (HPBCD/HCl). MOLT-4 cells (ATCC No. CRL-1582) were cultured in RPMI supplemented with 10% FBS. Cells were re-suspended in 50% matrigel (BD Biosciences) and 0.1 mL containing 5×10^6 cells was subcutaneously inoculated into the right flank of female NOD SCID mice (Charles River). For efficacy studies, when tumors reached the appropriate volume, mice were randomized (8 animals per group) using Easy stat software. Control vehicle (HPBCD/HCl), Example 73 (3.75 or 7.5 mg/kg) or Example 100 (3.75 mg/kg) were injected IV ([…]-[…]). Mice body weight was monitored three times a week and tumor size was measured using electronic calipers. Tumor volume was estimated by measuring the minimum and maximum tumor diameters using the formula: (minimum diameter)^2 (maximum diameter)/2. At the end of the treatment cycle (day 17), tumor growth inhibition was calculated using the formula: [formula] Response was evaluated as follows: CR (Complete Response) if tumor size was ≤25 mm^3 for at least three consecutive measurements, PR (Partial Response) if tumor size was comprised between 25 mm^3 and half of the starting size for at least three consecutive measurements. Mice were sacrificed at the first measurement for which tumor volume exceeded 2000 mm^3 or at the first signs of animal health deterioration. Efficacy of Example 73 and Example 100 on MOLT-4 xenografts is illustrated in Table 5. Treatment was started 12 days post tumor cells inoculation (average size: 214 mm^3). Vehicle (HPBCD/HCl), Example 73 (3.75 and 7.5 mg/kg) or Example 100 (3.75 mg/kg) were dosed IV each 3 days for a total of 6 administrations.

For assay [6], the system named is T-ALL (T-cell Acute Lymphoblastic Leukemia) and different types of solid tumors. The following applies: pre-clinical models of T-ALL and different types of solid tumors; cited from earlier work.
The next assay concerns MOLT-4. The following applies: mature T-ALL cell line xenograft model MOLT-4; cited from earlier work.

We go through twelve compounds from patent US12649733B2, “3,6-diamino-pyridazin-3-yl derivatives, pharmaceutical compositions containing them and their uses as pro-apoptotic agents” (LES LABORATOIRES SERVIER, priority 2019, dated 2026).

T2 sequence (Q07817 2-197 N197C): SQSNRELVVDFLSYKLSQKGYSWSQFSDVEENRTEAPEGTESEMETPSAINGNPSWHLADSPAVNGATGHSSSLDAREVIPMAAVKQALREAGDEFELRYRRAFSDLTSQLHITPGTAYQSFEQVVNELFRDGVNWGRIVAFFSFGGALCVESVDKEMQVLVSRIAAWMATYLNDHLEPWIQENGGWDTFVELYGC
T1 sequence (Q07817 with tags, fused parts or gaps V9A/V10N): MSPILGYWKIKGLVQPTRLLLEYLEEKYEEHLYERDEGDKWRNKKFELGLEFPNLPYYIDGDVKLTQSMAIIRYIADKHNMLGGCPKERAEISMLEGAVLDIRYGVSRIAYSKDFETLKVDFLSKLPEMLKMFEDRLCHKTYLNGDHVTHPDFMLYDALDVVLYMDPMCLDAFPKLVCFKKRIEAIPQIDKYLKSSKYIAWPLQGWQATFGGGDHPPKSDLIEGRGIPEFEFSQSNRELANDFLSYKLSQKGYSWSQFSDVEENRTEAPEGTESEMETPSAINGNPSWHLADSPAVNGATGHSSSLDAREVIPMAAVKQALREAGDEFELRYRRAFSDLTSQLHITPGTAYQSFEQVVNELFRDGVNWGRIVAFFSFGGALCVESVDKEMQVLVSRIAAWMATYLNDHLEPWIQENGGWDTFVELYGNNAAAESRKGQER

Regarding `CC1(C)CCC(c2ccc(Cl)cc2)=C(CN2CCN(c3ccc(C(=O)NS(=O)(=O)c4ccc(N[C@H](CCN5CCOCC5)CSc5ccccc5)c(S(=O)(=O)C(F)(F)F)c4)cc3)CC2)C1` [ABT-263], in assay [1], the “activity in pre-clinical models” value is recorded as “has shown activity”. Further, the “antitumor activity in clinical studies” value with lymphoid malignancies was “exhibited objective antitumor activity”. Besides, the “activity in T-ALL patient derived xenograft models” value in assay [2] is reported as “promising activity”.
In the case of `CNCC#Cc1ccc(OCCCc2sc(N(C)c3cc(C)c(Nc4nc5ccccc5s4)nn3)nc2C(=O)O)c(F)c1` [Example 73, 2-({6-[(1,3-Benzothiazol-2-yl)amino]-5-methylpyridazin-3-yl}(methyl)amino)-5-(3-{2-fluoro-4-[3-(methylamino)prop-1-yn-1-yl]phenoxy]propyl)-1,3-thiazole-4-carboxylic acid], the inhibitory constant (Ki) (usually a measure of affinity in units of concentration, obtained from inhibition or displacement) on BCLXL [3] is < 1 nM; at Bcl-xL protein it was 2.8 pM. The IC50 (in general, the concentration needed to halve the response being measured) at BCLXL [4] was determined as 0.0077 nM; with H146 cells, 4.8 nM; in the assay on MOLT-4 cells, 1.51 nM. Moreover, the “% TGI (day 17)” value in assay [5] came to 56.9%. Moreover, in assay [5], the “activity in vivo after intravenous administration” value (from here on “activity in vivo”) is reported as “active in vivo”.
Take `CNCCN(C)CC#Cc1ccc(OCCCc2sc(N(C)c3cc(C)c(Nc4nc5ccccc5s4)nn3)nc2C(=O)O)c(F)c1` [Example 74, 2-({6-[(1,3-Benzothiazol-2-yl)amino]-5-methylpyridazin-3-yl}(methyl)amino)-5-{3-[2-fluoro-4-(3-{methyl[2-(methylamino)ethyl]amino}prop-1-yn-1-yl)phenoxy]propyl}-1,3-thiazole-4-carboxylic acid]: the Ki at BCLXL [3] was determined as 1.1 nM; at Bcl-xL protein, 6.1 pM. Further, the values for the half-inhibitory concentration (IC50) at BCLXL [4], in the assay on H146 cells and in the assay with MOLT-4 cells were 0.074 nM, 6.78 nM and 6.72 nM, respectively. Further, the “activity in vivo” value in assay [5] is reported as “active in vivo”.
On to `Cc1cc(N(C)c2nc(C(=O)O)c(CCCOc3ccc(C#CCN(C)CCO)cc3F)s2)nnc1Nc1nc2ccccc2s1` [Example 76, 2-({6-[(1,3-Benzothiazol-2-yl)amino]-5-methylpyridazin-3-yl}(methyl)amino)-5-[3-(2-fluoro-4-{3-[(2-hydroxyethyl)(methyl)amino]prop-1-yn-1-yl}phenoxy)propyl]-1,3-thiazole-4-carboxylic acid], for which the Ki on BCLXL [3] is < 1 nM. In addition, the IC50 at BCLXL [4] was 0.077 nM; with H146 cells, 11.3 nM; with MOLT-4 cells, 2.37 nM. Also, the “activity in vivo” value in [5] is given as “active in vivo”.
On to `Cc1cc(N(C)c2nc(C(=O)O)c(CCCOc3ccc(C#CCO)cc3F)s2)nnc1Nc1nc2ccccc2s1` [Example 100, 2-({6-[(1,3-Benzothiazol-2-yl)amino]-5-methylpyridazin-3-yl}(methyl)amino)-5-{3-[2-fluoro-4-(3-hydroxyprop-1-yn-1-yl)phenoxy]propyl}-1,3-thiazole-4-carboxylic acid], for which the inhibition constant Ki at BCLXL [3] turned out to be 1.6 nM. In addition, the concentration for half-maximal inhibition (IC50) amounted to 0.032 nM on BCLXL [4], 38.6 nM with H146 cells and 12.6 nM with MOLT-4 cells. The “% TGI (day 17)” value in assay [5] was 64.6%. Further, in assay [5], the “activity in vivo” value is on record as “active in vivo”.
Turning to `Cc1cc(N(CCCCCNCCN2CCN(C)CC2)c2nc(C(=O)O)c(CCCOc3ccc(C#CCN(C)C)cc3F)s2)nnc1Nc1nc2ccccc2s1` [Example 167, 2-[[6-(1,3-Benzothiazol-2-ylamino)-5-methyl-pyridazin-3-yl]-[5-[2-(4-methylpiperazin-1-yl)ethylamino]pentyl]amino]-5-[3-[4-[3-(dimethylamino)prop-1-ynyl]-2-fluoro-phenoxy]propyl]thiazole-4-carboxylic acid], the inhibition constant (Ki) at BCLXL [3] was < 1 nM; on Bcl-xL protein, 2.9 pM. For the same compound, the figures for the IC50 on BCLXL [4], with H146 cells and in the assay with MOLT-4 cells were 0.013 nM, 432 nM and 400 nM, respectively.
The like results for `CNCCN(C)CC(O)CCCN(c1cc(C)c(Nc2nc3ccccc3s2)nn1)c1nc(C(=O)O)c(CCCOc2ccc(C#CCN(C)C)cc2F)s1` (stereo not shown) [Example 169, 2-[[6-(1,3-Benzothiazol-2-ylamino)-5-methyl-pyridazin-3-yl]-[4-hydroxy-5-[methyl-[2-(methylamino)ethyl]amino]pentyl]amino]-5-[3-[4-[3-(dimethylamino)prop-1-ynyl]-2-fluoro-phenoxy]propyl]thiazole-4-carboxylic acid] were, in that order, < 1 nM, 4.4 pM, 0.0099 nM, 73.1 nM and 106 nM.
Turning to `CCN(CC)CCNCC(O)CCCN(c1cc(C)c(Nc2nc3ccccc3s2)nn1)c1nc(C(=O)O)c(CCCOc2ccc(C#CCN(C)C)cc2F)s1` (stereo not shown) [Example 170, 2-[[6-(1,3-Benzothiazol-2-ylamino)-5-methyl-pyridazin-3-yl]-[5-[2-(diethylamino)ethylamino]-4-hydroxy-pentyl]amino]-5-[3-[4-[3-(dimethylamino)prop-1-ynyl]-2-fluoro-phenoxy]propyl]thiazole-4-carboxylic acid], the inhibition constant (Ki) on BCLXL [3] is < 1 nM; at Bcl-xL protein, 5 pM. Also, the IC50 turned out to be 0.014 nM on BCLXL [4], 156 nM with H146 cells and 154 nM in the assay on MOLT-4 cells.
The like results for `Cc1cc(N(CCCC(O)CN2CCC(N)CC2)c2nc(C(=O)O)c(CCCOc3ccc(C#CCN(C)C)cc3F)s2)nnc1Nc1nc2ccccc2s1` (stereo not shown) [Example 171, 2-[[5-(4-Amino-1-piperidyl)-4-hydroxy-pentyl]-[6-(1,3-benzothiazol-2-ylamino)-5-methyl-pyridazin-3-yl]amino]-5-[3-[4-[3-(dimethylamino)prop-1-ynyl]-2-fluoro-phenoxy]propyl]thiazole-4-carboxylic acid] were, in that order, < 1 nM, 3.5 pM, 0.013 nM, 110 nM and 411 nM.
`Cc1cc(N(CCCC(O)CN2CCNCC2)c2nc(C(=O)O)c(CCCOc3ccc(C#CCN(C)C)cc3F)s2)nnc1Nc1nc2ccccc2s1` (stereo not shown) [Example 172, 2-[[6-(1,3-Benzothiazol-2-ylamino)-5-methyl-pyridazin-3-yl]-(4-hydroxy-5-piperazin-1-yl-pentyl)amino]-5-[3-[4-[3-(dimethylamino)prop-1-ynyl]-2-fluoro-phenoxy]propyl]thiazole-4-carboxylic acid]: the Ki on BCLXL [3] was < 1 nM; at Bcl-xL protein it was 2.6 pM. Also, the values for the IC50 on BCLXL [4], in the assay on H146 cells and with MOLT-4 cells were 0.0078 nM, 40.2 nM and 160 nM, respectively.
As to `CN(C)CC#Cc1ccc(OCCCc2sc(N3CCc4cccc(C(=O)Nc5nc6ccccc6s5)c4C3)nc2C(=O)O)c(F)c1` [Example A-1155463], in assay [6], the in vivo activity result is recorded as “exhibited in vivo activity”.
`Cc1c(-c2ccc(N3CCc4cccc(C(=O)Nc5nc6ccccc6s5)c4C3)nc2C(=O)O)cnn1CC12CC3CC(CC(C3)C1)C2` [Example A-1331852]: in assay [6], the in vivo activity entry is “exhibited in vivo activity”. Also, the “in vitro and in vivo activity” value in the assay on MOLT-4 is “in vitro and in vivo activity”.
